Measurements reported in patent EP4810040A2, “INHIBITORS OF APOL1 AND METHODS OF USING SAME” (priority 2020, dated 2022).
Where two headings read alike, the source gives them in different places.

Target: T1, APOL1 G1 (Homo sapiens, UniProt O14791, I384M/S342G)
T1 sequence (O14791 28-398 S342G/I384M): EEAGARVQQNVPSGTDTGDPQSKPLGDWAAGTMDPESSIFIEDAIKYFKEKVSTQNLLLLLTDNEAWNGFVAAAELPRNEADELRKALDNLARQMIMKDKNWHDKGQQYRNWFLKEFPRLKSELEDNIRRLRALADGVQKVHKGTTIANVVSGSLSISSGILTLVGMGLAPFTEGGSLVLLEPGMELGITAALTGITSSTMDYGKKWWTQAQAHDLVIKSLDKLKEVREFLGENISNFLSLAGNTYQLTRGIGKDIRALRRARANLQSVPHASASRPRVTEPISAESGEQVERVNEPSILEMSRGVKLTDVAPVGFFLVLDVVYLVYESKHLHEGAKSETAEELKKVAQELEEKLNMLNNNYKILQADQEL
Test: MultiTox-Fluor Multiplex Cytotoxicity Assay, tet-inducible APOL1 G1 T-REx-HEK293 cells
Assay type: cell-based
Set-up: expressed in transfected cells; host or cells: T-REx HEK293, clone G1 DC3.25 (pAAVS1-Puro-APOL1 G1)
Conditions: for IC90: read-out: Multi-Tox Assay IC90; for Emax: read-out: Multi-Tox Assay Max Activity (%); for IC50: IP50 = IC50 for cell proliferation
Method in brief: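 T-REx-HEK293 cells carrying tet-inducible APOL1 G1 induced with 50 ng/mL tet alongside compound (top 10 µM, 10-point 3-fold, duplicate) for 24 h at 37 °C. MultiTox-Fluor dead/live protease fluorescence ratio read after 30 min; normalized to no-tet (100% viability) and tet-treated (0%) controls, then curve-fitted.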

[1] = HEK293, Multi-Tox Assay, APOL1 variant (G0/G1/G2) of the HEK293 cells not given
[2] = Multi-Tox Assay, APOL1 variant not given
[3] = Multi-Tox Assay, APOL1 variant (G0/G1/G2) not stated in Table 46
[4] = Multi-Tox Assay, APOL1 variant not stated in Table 46

SMILES	IC90 [1] [nM]	Multi-Tox Assay Max Activity (%) [2] [%]	Emax [2] [%]	also measured
C[C@H]1C[C@@]2(C[C@@H](c3ccnn3C)N1)OCCc1cc(Cl)sc12 (racemic) [Compound 152]	> 500	98.0		
Cc1ccc([C@@H]2C[C@]3(C[C@H](C)N2)OCCc2cc(Cl)sc23)nn1 (racemic) [Compound 58]	< 50	99.7		
Cc1ccc(Cn2cc([C@@H]3C[C@]4(C[C@H](C)N3)OCC(F)(F)c3cc(Cl)sc34)nn2)nc1 [Compound 334]	> 500	96.0		
C[C@H]1CC2(C[C@@H](c3cn(C)nn3)N1)OCC(C)(C)c1sc(C(F)(F)F)cc12 (single isomer, unassigned) [Compound 16]	50 to 500	100.0		
C[C@H]1C[C@@]2(C[C@@H](c3cn(CCC(N)=O)nn3)N1)OC[C@@H](O)c1cc(Cl)sc12 [Compound 288]	50 to 500	97.0		
C[C@H]1C[C@@]2(C[C@@H](c3cn(CC(N)=O)nn3)N1)OCCc1cc(Cl)sc12 (racemic) [Compound 133]	50 to 500	99.7		
COc1ccc(C2CC3(CC(C)N2)OCCc2cc(Cl)sc23)nn1 (mixture of isomers) [Compound 76]	< 50		99.3	
C[C@H]1C[C@@]2(C[C@@H](c3cnc(-c4ccccc4)o3)N1)OCCc1cc(Cl)sc12 (racemic) [Compound 70]	< 50		99.3	
C[C@@H]1CC2(C[C@H](C)N1)OCCc1cc(C3CC(F)(F)C3)sc12 (single isomer, unassigned) [Compound 198]	50 to 500		98.7	
C[C@H]1C[C@@]2(C[C@@H](c3ccc(N(C)C)nc3)N1)OCCc1cc(Cl)sc12 (racemic) [Compound 89]	< 50		99.3	
COCC1CC2(CC(c3cn(C)nn3)N1)OCCc1cc(Cl)sc12 (stereo not drawn) [Compound 190]	50 to 500		99	
Cc1cc([C@@H]2C[C@]3(C[C@H](C)N2)OCCc2cc(Cl)sc23)nc(N(C)C)n1 (racemic) [Compound 138]	50 to 500	98.0		
CCOCCn1cc([C@@H]2C[C@]3(C[C@H](C)N2)OC[C@@H](O)c2cc(Cl)sc23)nn1 [Compound 257]	50 to 500	101.0		
C[C@H]1C[C@@]2(C[C@@H](c3cn(CCO)nn3)N1)OC[C@@H](O)c1cc(Cl)sc12 [Compound 244]	50 to 500	100.0		
COc1cccc(Cn2cc([C@@H]3C[C@]4(C[C@H](C)N3)OC[C@@H](O)c3cc(Cl)sc34)nn2)c1 [Compound 278]	50 to 500	100.0		
Cc1ncc(Cn2cc([C@@H]3C[C@]4(C[C@H](C)N3)OC[C@@H](O)c3cc(Cl)sc34)nn2)cn1 [Compound 277]	50 to 500	100.0		
C[C@H]1C[C@@]2(C[C@@H](c3ccc(C(N)=O)cc3)N1)OCCc1cc(Cl)sc12 (racemic) [Compound 47]	< 50		99.3	
CC1CC2(CC(C3CC3)N1)OCCc1cc(Cl)sc12 (mixture of isomers) [Compound 217]	< 50		99.2	
C[C@H]1C[C@@]2(C[C@@H](c3cn(Cc4cnc5cnccn45)nn3)N1)OC[C@@H](O)c1cc(Cl)sc12 [Compound 243]	50 to 500	98.0		
CC1CC2(CC(c3ccc4c(c3)OCC(=O)N4)N1)OCCc1cc(Cl)sc12 (stereo not drawn) [Compound 39]	< 50		99.7	
C[C@H]1C[C@@]2(C[C@@H](c3cn(Cc4ccc5nc(O)[nH]c5c4)nn3)N1)OCC(F)(F)c1cc(Cl)sc12 [Compound 366]				IC90 [3]: > 500 nM; Multi-Tox Assay Max Activity (%) [4]: 95.0%; IC50 [4]: 50 to 500 nM
C[C@H]1C[C@@]2(C[C@@H](c3cn(Cc4ccc5nc(O)[nH]c5c4)nn3)N1)OC[C@@H](O)c1cc(Cl)sc12 [Compound 249]	> 500	92.0		
C[C@H]1C[C@@]2(C[C@@H](c3cccc(C(N)=O)c3)N1)OCCc1cc(Cl)sc12 (racemic) [Compound 109]	50 to 500	100.0		
C[C@@H]1CC2(C[C@H](C)N1)OCCc1cc(Cl)sc12 (single isomer, unassigned) [Compound 204]	50 to 500		99	

SMILES	IC90 [1] [nM]	Multi-Tox Assay Max Activity (%) [2] [%]	Emax [2] [%]	also measured
CC1CC2(CC(c3ccncc3)N1)OCCc1cc(Cl)sc12 (stereo not drawn) [Compound 30]	< 50			
Cc1ccc([C@@H]2C[C@]3(C[C@H](C)N2)OCCc2cc(Cl)sc23)nc1 (racemic) [Compound 77]	< 50		99	
C[C@H]1C[C@@]2(C[C@@H](c3cccc4[nH]c(=O)oc34)N1)OCCc1cc(Cl)sc12 (racemic) [Compound 141]	50 to 500	96.3		
C[C@H]1C[C@@]2(C[C@@H](c3cn(CC4(F)CCOCC4)nn3)N1)OCC(F)(F)c1cc(Cl)sc12 [Compound 329]	> 500	90.0		
Cc1cc(Cn2cc([C@@H]3C[C@]4(C[C@H](C)N3)OC[C@@H](O)c3cc(Cl)sc34)nn2)ccn1 [Compound 296]	50 to 500			
C[C@H]1C[C@@]2(C[C@@H](c3ccc(=O)n(C)c3)N1)OCCc1cc(Cl)sc12 (racemic) [Compound 80]	< 50		99.7	
C[C@H]1C[C@@]2(C[C@@H](c3cc4n(n3)CCCO4)N1)OCCc1cc(Cl)sc12 (racemic) [Compound 131]	50 to 500	99.3		
Cc1ccccc1C(O)Cn1cc([C@@H]2C[C@]3(C[C@H](C)N2)OC[C@@H](O)c2cc(Cl)sc23)nn1 (stereo partly drawn) [Compound 261]	50 to 500	100.0		
C[C@H]1C[C@@]2(C[C@@H](c3cn(Cc4cccc(CO)c4)nn3)N1)OC[C@@H](O)c1cc(Cl)sc12 [Compound 271]	50 to 500	97.0		
Cc1cc2c(s1)C1(CC(C)NC(c3cn(C)nn3)C1)OCC2 (single isomer, unassigned) [Compound 3]	< 50		99.7	
Cc1ccc([C@@H]2C[C@]3(C[C@H](C)N2)OCCc2cc(Cl)sc23)cn1 (racemic) [Compound 55]	< 50	99.7		
Cn1cc(C2CC3(CC(C(F)F)N2)OCCc2cc(C(F)(F)F)sc23)nn1 (stereo not drawn) [Compound 389, 2'-(difluoromethyl)-6'-(1-methyltriazol-4-yl)-2-(trifluoromethyl)spiro[4,5-dihydrothieno[2,3-c]pyran-7,4'-piperidine]]				IC90 [3]: > 500 nM; Emax [4]: 99%
C[C@H]1C[C@@]2(C[C@@H](c3cn(Cc4ccc(C#N)nc4)nn3)N1)OC[C@@H](O)c1cc(Cl)sc12 [Compound 236]	50 to 500	100.0		
C[C@@H]1CC2(C[C@H](C)N1)OCCc1cc(C(F)(F)F)sc12 (single isomer, unassigned) [Compound 207]	50 to 500		100	
Cn1cc(C2CC3(CC(C(F)F)N2)OCCc2cc(Cl)sc23)nn1 (stereo not drawn) [Compound 388, 2-chloro-2'-(difluoromethyl)-6'-(1-methyltriazol-4-yl)spiro[4,5-dihydrothieno[2,3-c]pyran-7,4'-piperidine]]				IC90 [3]: > 500 nM; Emax [4]: 90%
C[C@H]1C[C@@]2(C[C@@H](c3cnc(C(N)=O)cn3)N1)OCCc1cc(Cl)sc12 (racemic) [Compound 63]	< 50		99.8	
COc1ccc(Cn2cc([C@@H]3C[C@]4(C[C@H](C)N3)OCC(F)(F)c3cc(Cl)sc34)nn2)cn1 [Compound 360]	50 to 500			
C[C@H]1C[C@@]2(C[C@@H](c3cnccn3)N1)OCCc1cc(Cl)sc12 (racemic) [Compound 101]	< 50	100.0		
C[C@H]1CC2(C[C@H](C)N1)OCCc1sc(C(F)(F)F)cc12 (stereo partly drawn) [Compound 195]	> 500		76	
C[C@H]1C[C@@]2(C[C@@H](c3cnc(C4CC4)nc3)N1)OCCc1cc(Cl)sc12 (racemic) [Compound 52]	< 50	99.7		
C[C@H]1C[C@@]2(C[C@@H](c3cn(CC4CCC(=O)NC4)nn3)N1)OCC(F)(F)c1cc(Cl)sc12 (stereo partly drawn) [Compound 368]				IC90 [3]: > 500 nM; Multi-Tox Assay Max Activity (%) [4]: 96.0%; IC50 [4]: 50 to 500 nM
CCc1cc2c(s1)C1(CC(C)NC(c3cn(C)nn3)C1)OCC2 (single isomer, unassigned) [Compound 6]	< 50		99.7	
C[C@H]1C[C@@]2(C[C@@H](c3ccc(O)c(F)c3)N1)OCCc1cc(Cl)sc12 [Compound 51]	< 50	99.7		
